Data taken from patent US20260274853A1, “BIFUNCTIONAL COMPOUNDS CONTAINING PYRIMIDINE DERIVATIVES FOR DEGRADING CYCLIN-DEPENDENT KINASE 2 VIA UBIQUITIN PROTEASOME PATHWAY” (NIKANG THERAPEUTICS, INC., priority 2022, published 2026).

Experiments:
CDK2 [1] = target: T1, CDK2 (Homo sapiens, UniProt P24941); assay: Inhibition of CDK2: phospho-Rb (S807/811) HTRF measurement in OVCAR3 cells; type: cell-based; settings: 24 h compound treatment, read-out: pRb (nM), IC50 in pRB(S807/811) assay
T1 construct: High-Throughput Measurement of Cellular Endogenous CDK2; endogenous in cells; host or cells: OVCAR3

CDK2 [2] = target: T1, CDK2; assay: CDK2 HTRF assay: cellular endogenous CDK2 level in OVCAR3 cells; type: cell-based; settings: 24 hours compound treatment, read-out: DC50 (half maximal degradation concentration of CDK2)
Procedure, shortened: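 Endogenous CDK2 degradation in OVCAR3 cells after 24 h compound treatment at 0.3–10,000 nM. Lysates assayed with an HTRF total-CDK2 two-antibody kit, TR-FRET 665/620 ratio normalized to DMSO. DC50 from four-parameter logistic fit, reported as potency bins.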

Compound | IC50 (CDK2 [1]) | DC50 (CDK2 [2])
Cn1nc(N2CCC(=O)NC2=O)c2ccc(C3CCN(CC4CCCC(S(=O)(=O)N5CCC(Nc6ncc(C(F)(F)F)c(-c7cnn(CC(F)(F)F)c7)n6)CC5)C4)CC3)cc21 (stereo not shown) [Example 89, 1-(1-methyl-6-(1-((3-((4-((4-(1-(2,2,2-trifluoroethyl)-1H-pyrazol-4-yl)-5-(trifluoromethyl)pyrimidin-2-yl)amino)-piperidin-1-yl)sulfonyl)-cyclohexyl)-methyl)piperidin-4-yl)-1H-indazol-3-yl)dihydropyrimidine-2,4(1H,3H)-dione] | < 100 nM | < 100 nM
Cn1nc(N2CCC(=O)NC2=O)c2ccc(C3CCN(CC(C)(C)c4cccc(S(=O)(=O)N5CCC(Nc6ncc(C(F)(F)F)c(-c7cnn(CC(F)(F)F)c7)n6)CC5)c4)CC3)cc21 [Example 90, 1-(1-methyl-6-(1-(2-methyl-2-(3-((4-((4-(1-(2,2,2-trifluoroethyl)-1H-pyrazol-4-yl)-5-(trifluoromethyl)-pyrimidin-2-yl)-amino)piperidin-1-yl)sulfonyl)phenyl)-propyl)piperidin-4-yl)-1H-indazol-3-yl)-dihydro-pyrimidine-2,4(1H,3H)-dione] | < 100 nM | < 100 nM
Cn1nc(N2CCC(=O)NC2=O)c2ccc(N3CCC(CN4CCC(S(=O)(=O)N5CCC(Nc6ncc(C(F)(F)F)c(-c7cnn(CC(F)(F)F)c7)n6)CC5)CC4)CC3)cc21 [Example 92, 1-(1-methyl-6-(4-((4-((4-((4-(1-(2,2,2-trifluoroethyl)-1H-pyrazol-4-yl)-5-(trifluoromethyl)pyrimidin-2-yl)amino)-piperidin-1-yl)sulfonyl)-piperidin-1-yl)methyl)piperidin-1-yl)-1H-indazol-3-yl)dihydropyrimidine-2,4(1H,3H)-dione] | < 100 nM | < 100 nM
CC(Cc1cccc(S(=O)(=O)N2CCC(Nc3ncc(C(F)(F)F)c(-c4cnn(CC(F)(F)F)c4)n3)CC2)c1)N1CCC(c2ccc3c(N4CCC(=O)NC4=O)nn(C)c3c2)CC1 (stereo not shown) [Example 93, 1-(1-methyl-6-(1-(1-(3-((4-((4-(1-(2,2,2-trifluoroethyl)-1H-pyrazol-4-yl)-5-(trifluoromethyl)pyrimidin-2-yl)amino)-piperidin-1-yl)sulfonyl)-phenyl)propan-2-yl)piperidin-4-yl)-1H-indazol-3-yl)dihydropyrimidine-2,4(1H,3H)-dione] | < 100 nM | < 100 nM
CC(Cc1cccc(S(=O)(=O)N2CCC(Nc3ncc(C(F)(F)F)c(-c4cnn(-c5ccccc5F)c4)n3)CC2)c1)N1CCC(c2ccc3c(N4CCC(=O)NC4=O)nn(C)c3c2)CC1 (stereo not shown) [Example 96, 1-(6-(1-(1-(3-((4-((4-(1-(2-fluoro-phenyl)-1H-pyrazol-4-yl)-5-(trifluoro-methyl)pyrimidin-2-yl)amino)-piperidin-1-yl)sulfonyl)phenyl)propan-2-yl)-piperidin-4-yl)-1-methyl-1H-indazol-3-yl)dihydropyrimidine-2,4(1H,3H)-dione] | < 100 nM | < 100 nM
